Measurements taken from PubChem BioAssay (NCI).
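Interpolation was linear, between the two tested concentrations surrounding the appropriate level; five concentrations were tested over 48 hours in 96-well plates. TGI marks complete inhibition of growth.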

Experiments:
Test in all cases: NCI tumour cell line growth inhibition, 48 h
MDA-MB-435 = system: MDA-MB-435
SK-MEL-2 melanoma = system: SK-MEL-2 melanoma
TK-10 renal = system: TK-10 renal
MDA-MB-231 breast = system: MDA-MB-231 breast
NCI-H460 lung = system: NCI-H460 lung
SNB-19 CNS = system: SNB-19 CNS
IGROV1 ovarian = system: IGROV1 ovarian
RPMI-8226 leukemia = system: RPMI-8226 leukemia
MCF7 breast = system: MCF7 breast
BT-549 breast = system: BT-549 breast
OVCAR-5 ovarian = system: OVCAR-5 ovarian
NCI/ADR-RES ovarian = system: NCI/ADR-RES ovarian
HOP-62 NSCLC = system: HOP-62 NSCLC
NCI-H23 lung = system: NCI-H23 lung
EKVX NSCLC = system: EKVX NSCLC
CAKI-1 renal = system: CAKI-1 renal
U251 CNS = system: U251 CNS
OVCAR-3 ovarian = system: OVCAR-3 ovarian
A549 NSCLC = system: A549 NSCLC
OVCAR-4 ovarian = system: OVCAR-4 ovarian
HCT-15 colon = system: HCT-15 colon
M14 melanoma = system: M14 melanoma
KM12 colon = system: KM12 colon
DU-145 prostate = system: DU-145 prostate
SF-295 CNS = system: SF-295 CNS
K-562 leukemia = system: K-562 leukemia
HCC-2998 colon = system: HCC-2998 colon
LOX IMVI melanoma = system: LOX IMVI melanoma
HCT-116 colon = system: HCT-116 colon
UACC-62 melanoma = system: UACC-62 melanoma
OVCAR-8 ovarian = system: OVCAR-8 ovarian
MDA-N = system: MDA-N
HOP-92 NSCLC = system: HOP-92 NSCLC
HT29 colon = system: HT29 colon
786-0 renal = system: 786-0 renal
SK-OV-3 ovarian = system: SK-OV-3 ovarian
MOLT-4 leukemia = system: MOLT-4 leukemia
SF-268 CNS = system: SF-268 CNS
SF-539 CNS = system: SF-539 CNS
SW-620 colon = system: SW-620 colon
COLO 205 colon = system: COLO 205 colon
RXF 393 renal = system: RXF 393 renal
SNB-75 CNS = system: SNB-75 CNS
NCI-H522 lung = system: NCI-H522 lung
SN12C renal = system: SN12C renal
T-47D breast = system: T-47D breast
NCI-H226 lung = system: NCI-H226 lung
CCRF-CEM leukemia = system: CCRF-CEM leukemia
ACHN renal = system: ACHN renal
SK-MEL-28 melanoma = system: SK-MEL-28 melanoma
PC-3 prostate = system: PC-3 prostate
HL-60(TB) leukemia = system: HL-60(TB) leukemia
MALME-3M melanoma = system: MALME-3M melanoma
UACC-257 melanoma = system: UACC-257 melanoma
UO-31 renal = system: UO-31 renal
SK-MEL-5 melanoma = system: SK-MEL-5 melanoma
A498 renal = system: A498 renal
SR leukemia = system: SR leukemia

COC(=O)[C@]1(c2cc3ccccc3[nH]2)CC2CN(C(=O)OCc3ccccc3)C1C=C2OC (some centres not stated)
TGI (MDA-MB-435): 55.3 µM
TGI (SK-MEL-2 melanoma): 44 µM
TGI (TK-10 renal): > 100 µM
TGI (MDA-MB-231 breast): 56.9 µM
TGI (NCI-H460 lung): > 100 µM
TGI (SNB-19 CNS): > 100 µM
TGI (IGROV1 ovarian): > 100 µM
TGI (RPMI-8226 leukemia): 72.1 µM
TGI (MCF7 breast): 58.5 µM
TGI (BT-549 breast): 82.3 µM
TGI (OVCAR-5 ovarian): 44.2 µM
TGI (NCI/ADR-RES ovarian): > 100 µM
TGI (HOP-62 NSCLC): > 100 µM
TGI (NCI-H23 lung): > 100 µM
TGI (EKVX NSCLC): > 100 µM
TGI (CAKI-1 renal): > 100 µM
TGI (U251 CNS): > 100 µM
TGI (OVCAR-3 ovarian): 91.4 µM
TGI (A549 NSCLC): > 100 µM
TGI (OVCAR-4 ovarian): 98.8 µM
TGI (HCT-15 colon): > 100 µM
TGI (M14 melanoma): 47 µM
TGI (KM12 colon): > 100 µM
TGI (DU-145 prostate): > 100 µM
TGI (SF-295 CNS): > 100 µM
TGI (K-562 leukemia): > 100 µM
TGI (HCC-2998 colon): 46.8 µM
TGI (LOX IMVI melanoma): > 100 µM
TGI (HCT-116 colon): > 100 µM
TGI (UACC-62 melanoma): 36.7 µM
TGI (OVCAR-8 ovarian): > 100 µM
TGI (MDA-N): > 100 µM
TGI (HOP-92 NSCLC): 80.6 µM
TGI (HT29 colon): 63.6 µM
TGI (786-0 renal): > 100 µM
TGI (SK-OV-3 ovarian): > 100 µM
TGI (MOLT-4 leukemia): 64.4 µM
TGI (SF-268 CNS): > 100 µM
TGI (SF-539 CNS): 55.2 µM
TGI (SW-620 colon): > 100 µM
TGI (COLO 205 colon): 38 µM
TGI (RXF 393 renal): 57.6 µM
TGI (SNB-75 CNS): 71.2 µM
TGI (NCI-H522 lung): 91.3 µM
TGI (SN12C renal): > 100 µM
TGI (T-47D breast): > 100 µM
TGI (NCI-H226 lung): 55 µM
TGI (CCRF-CEM leukemia): 69.3 µM
TGI (ACHN renal): 74.3 µM
TGI (SK-MEL-28 melanoma): > 100 µM
TGI (PC-3 prostate): > 100 µM
TGI (HL-60(TB) leukemia): 43.7 µM
TGI (MALME-3M melanoma): 66.4 µM
TGI (UACC-257 melanoma): 49.9 µM

NC(=S)C1=C(N)Oc2c(c(=O)oc3ccccc23)C1c1ccc(Br)cc1 (configuration not stated)
TGI (MDA-MB-435): > 100 µM
TGI (SK-MEL-2 melanoma): > 100 µM
TGI (TK-10 renal): > 100 µM
TGI (MDA-MB-231 breast): > 100 µM
TGI (NCI-H460 lung): > 100 µM
TGI (SNB-19 CNS): > 100 µM
TGI (IGROV1 ovarian): > 100 µM
TGI (MCF7 breast): > 100 µM
TGI (BT-549 breast): > 100 µM
TGI (OVCAR-5 ovarian): > 100 µM
TGI (NCI/ADR-RES ovarian): > 100 µM
TGI (HOP-62 NSCLC): > 100 µM
TGI (NCI-H23 lung): > 100 µM
TGI (EKVX NSCLC): > 100 µM
TGI (CAKI-1 renal): > 100 µM
TGI (U251 CNS): > 100 µM
TGI (OVCAR-3 ovarian): > 100 µM
TGI (A549 NSCLC): > 100 µM
TGI (UO-31 renal): > 100 µM
TGI (OVCAR-4 ovarian): > 100 µM
TGI (HCT-15 colon): > 100 µM
TGI (M14 melanoma): > 100 µM
TGI (DU-145 prostate): > 100 µM
TGI (SF-295 CNS): > 100 µM
TGI (K-562 leukemia): > 100 µM
TGI (HCC-2998 colon): > 100 µM
TGI (LOX IMVI melanoma): > 100 µM
TGI (HCT-116 colon): > 100 µM
TGI (UACC-62 melanoma): > 100 µM
TGI (OVCAR-8 ovarian): > 100 µM
TGI (MDA-N): > 100 µM
TGI (HOP-92 NSCLC): > 100 µM
TGI (HT29 colon): > 100 µM
TGI (786-0 renal): > 100 µM
TGI (SK-OV-3 ovarian): > 100 µM
TGI (SK-MEL-5 melanoma): > 100 µM
TGI (A498 renal): > 100 µM
TGI (SF-268 CNS): > 100 µM
TGI (SF-539 CNS): > 100 µM
TGI (SW-620 colon): > 100 µM
TGI (COLO 205 colon): > 100 µM
TGI (SNB-75 CNS): > 100 µM
TGI (NCI-H522 lung): > 100 µM
TGI (SN12C renal): > 100 µM
TGI (SR leukemia): 63.2 µM
TGI (CCRF-CEM leukemia): > 100 µM
TGI (ACHN renal): > 100 µM
TGI (SK-MEL-28 melanoma): > 100 µM
TGI (PC-3 prostate): > 100 µM
TGI (HL-60(TB) leukemia): > 100 µM
TGI (MALME-3M melanoma): > 100 µM
TGI (UACC-257 melanoma): > 100 µM

CCOC(=O)CCSS(=O)(=O)c1ccccc1
TGI (MDA-MB-435): > 100 µM
TGI (SK-MEL-2 melanoma): > 100 µM
TGI (TK-10 renal): > 100 µM
TGI (NCI-H460 lung): > 100 µM
TGI (SNB-19 CNS): > 100 µM
TGI (RPMI-8226 leukemia): 99 µM
TGI (MCF7 breast): > 100 µM
TGI (BT-549 breast): > 100 µM
TGI (OVCAR-5 ovarian): > 100 µM
TGI (NCI/ADR-RES ovarian): > 100 µM
TGI (HOP-62 NSCLC): > 100 µM
TGI (NCI-H23 lung): > 100 µM
TGI (EKVX NSCLC): > 100 µM
TGI (CAKI-1 renal): > 100 µM
TGI (U251 CNS): > 100 µM
TGI (OVCAR-3 ovarian): > 100 µM
TGI (A549 NSCLC): > 100 µM
TGI (OVCAR-4 ovarian): > 100 µM
TGI (HCT-15 colon): > 100 µM
TGI (M14 melanoma): > 100 µM
TGI (KM12 colon): > 100 µM
TGI (DU-145 prostate): > 100 µM
TGI (SF-295 CNS): > 100 µM
TGI (HCC-2998 colon): > 100 µM
TGI (LOX IMVI melanoma): 77.4 µM
TGI (UACC-62 melanoma): > 100 µM
TGI (OVCAR-8 ovarian): > 100 µM
TGI (MDA-N): > 100 µM
TGI (HOP-92 NSCLC): > 100 µM
TGI (786-0 renal): 63.9 µM
TGI (SK-OV-3 ovarian): > 100 µM
TGI (SK-MEL-5 melanoma): > 100 µM
TGI (A498 renal): > 100 µM
TGI (SW-620 colon): > 100 µM
TGI (COLO 205 colon): > 100 µM
TGI (RXF 393 renal): > 100 µM
TGI (SNB-75 CNS): > 100 µM
TGI (SN12C renal): > 100 µM
TGI (T-47D breast): > 100 µM
TGI (NCI-H226 lung): > 100 µM
TGI (CCRF-CEM leukemia): > 100 µM
TGI (ACHN renal): > 100 µM
TGI (SK-MEL-28 melanoma): > 100 µM
TGI (PC-3 prostate): > 100 µM
TGI (HL-60(TB) leukemia): > 100 µM
TGI (UACC-257 melanoma): > 100 µM
